Measured values reported in patent US20200181095A1, “SELECTIVE MATRIX METALLOPROTEINASE-13 INHIBITORS” (FLORIDA ATLANTIC UNIVERSITY BOARD OF TRUSTEES, priority 2017, published 2020).
Values joined by “and” are separate entries in the source; they are usually repeats but may differ in a detail not shown here. Identical values can stand only once. Like-named read-outs stand apart in the source and are kept apart here. Blank lines part the entries; values can stand above or below the compound they belong to.

What was measured:
Format in all cases: biochemical
MMP-13 [1] = target: T1, MMP-13 (Homo sapiens, UniProt P45452); test: MMP-13 IC50 enzyme assay with fTHP-15 substrate; details: for IC50: fTHP substrate
T1 construct: purchased R&D Systems 511-MM
Method: Inhibitor kinetics: Inhibition experiments were conducted as described previously.^3 Briefly, fTHP-15, MMP-13, and inhibitor working solutions were prepared in EAB.
The enzyme was allowed to incubate with the test compounds for 30 min at 25° C. The assays were initiated by addition of 5 μL of fTHP-15 or Knight substrate and immediately placed in the microplate reader to record fluorescence.
To determine IC50 values of each compound, the relative fluorescence units (RFU) from wells containing MMP-13, fTHP-15, and inhibitors were plotted vs. no-enzyme and untreated controls.

MMP-13 [2] = target: T1, MMP-13; test: MMP-13 inhibition constant (Ki) determination, fTHP-15; details: fTHP-15 substrate, 4 nM MMP-13, mixed inhibition model
Method: Rates of hydrolysis were obtained from plots of fluorescence versus time using data points from only the linear portion of the hydrolysis curve.
KM values were determined by nonlinear regression analysis using the one-site hyperbolic binding model^4 and additionally evaluated by linear analysis. All Ki values were determined by nonlinear regression (hyperbolic equation) analysis using the mixed inhibition model, which allows for simultaneous determination of the mechanism of inhibition, The mechanism of inhibition was determined using the “α” parameter derived from a mixed-model inhibition by GraphPad Prism. The mechanism of inhibition was additionally confirmed by Lineweaver-Burke plots.

MMP-8 = target: T2, MMP-8 (Homo sapiens, UniProt P22894); test: Selectivity assay MMP-8 (fTHP-15); details: 200 nM
T2 construct: purchased R&D Systems
Method: (§1) All enzymes were purchased from R&D Systems and activated according to manufacturer's instructions. Upon activation, each enzyme was diluted in EAB to […] and stored at −80° C. until further use. […]

MMP-2 = target: T3, MMP-2 (Homo sapiens, UniProt P08253); test: Selectivity assay MMP-2 (fTHP-15); details: 200 nM
T3 construct: purchased R&D Systems
Method: as §1

Caspase-6 = Caspase-6 (Homo sapiens, UniProt P55212); test: Protease selectivity profiling; set-up: inhibition: dose or concentration left out as unconfirmed
MMP-12 [3] = target: T4, MMP-12 (Homo sapiens, UniProt P39900); test: Additional specificity assay, 10-point dilution IC50
ACE2 = ACE2 (Homo sapiens, UniProt Q9BYF1); test: Protease selectivity profiling; set-up: inhibition: dose or concentration left out as unconfirmed
Cathepsin-L = Cathepsin-L (Homo sapiens, UniProt P07711); test: Protease selectivity profiling; set-up: inhibition: dose or concentration left out as unconfirmed
Caspase-1 = Caspase-1 (Homo sapiens, UniProt P29466); test: Protease selectivity profiling; set-up: inhibition: dose or concentration left out as unconfirmed
IDE = IDE (Homo sapiens, UniProt P14735); test: Protease selectivity profiling; set-up: inhibition: dose or concentration left out as unconfirmed
Caspase-5 = Caspase-5 (Homo sapiens, UniProt P51878); test: Protease selectivity profiling; set-up: inhibition: dose or concentration left out as unconfirmed
Cathepsin-K = Cathepsin-K (Homo sapiens, UniProt P43235); test: Protease selectivity profiling; set-up: inhibition: dose or concentration left out as unconfirmed
ADAM10 = ADAM10 (Homo sapiens, UniProt O14672); test: Protease selectivity profiling; set-up: inhibition: dose or concentration left out as unconfirmed
Furin = Furin (Homo sapiens, UniProt P09958); test: Protease selectivity profiling; set-up: inhibition: dose or concentration left out as unconfirmed
Caspase-3 = Caspase-3 (Homo sapiens, UniProt P42574); test: Protease selectivity profiling; set-up: inhibition: dose or concentration left out as unconfirmed
Cathepsin-D = Cathepsin-D (Homo sapiens, UniProt P07339); test: Protease selectivity profiling; set-up: inhibition: dose or concentration left out as unconfirmed
MMP-12 [4] = target: T4, MMP-12; test: Protease selectivity profiling; details: single stranded peptide substrate; inhibitor 1 mM (footnote; text 1 μM); duplicates
ACE = ACE (Homo sapiens, UniProt P12821); test: Protease selectivity profiling; set-up: inhibition: dose or concentration left out as unconfirmed
Factor-XA = target: T5, Factor-XA (Homo sapiens, UniProt P00742); test: Protease selectivity profiling; set-up: inhibition: dose or concentration left out as unconfirmed
T5 construct: Factor-XA

MMP-3 = MMP-3 (Homo sapiens, UniProt P08254); test: Protease selectivity profiling; details: single stranded peptide substrate; inhibitor (text 1 μM); duplicates
BACE-1 = BACE-1 (Homo sapiens, UniProt P56817); test: Protease selectivity profiling; set-up: inhibition: dose or concentration left out as unconfirmed
Cathepsin-S = Cathepsin-S (Homo sapiens, UniProt P25774); test: Protease selectivity profiling; set-up: inhibition: dose or concentration left out as unconfirmed
Neprilysin = Neprilysin (Homo sapiens, UniProt P08473); test: Protease selectivity profiling; set-up: inhibition: dose or concentration left out as unconfirmed
MMP-7 = MMP-7 (Homo sapiens, UniProt P09237); test: Protease selectivity profiling; set-up: inhibition: dose or concentration left out as unconfirmed
Caspase-7 = Caspase-7 (Homo sapiens, UniProt P55210); test: Protease selectivity profiling; set-up: inhibition: dose or concentration left out as unconfirmed
TACE = TACE (Homo sapiens, UniProt P78536); test: Protease selectivity profiling; set-up: inhibition: dose or concentration left out as unconfirmed
Thrombin = Thrombin (Homo sapiens, UniProt P00734); test: Protease selectivity profiling; details: read-out: % Inhibition Thrombin
uPA = uPA (Homo sapiens, UniProt P00749); test: Protease selectivity profiling; set-up: inhibition: dose or concentration left out as unconfirmed
Caspase-2 = Caspase-2 (Homo sapiens, UniProt P42575); test: Protease selectivity profiling; set-up: inhibition: dose or concentration left out as unconfirmed
[5] = single stranded peptide substrate, inhibitor 1 µM, duplicates

T4 sequence (P39900 106-470, species assumed): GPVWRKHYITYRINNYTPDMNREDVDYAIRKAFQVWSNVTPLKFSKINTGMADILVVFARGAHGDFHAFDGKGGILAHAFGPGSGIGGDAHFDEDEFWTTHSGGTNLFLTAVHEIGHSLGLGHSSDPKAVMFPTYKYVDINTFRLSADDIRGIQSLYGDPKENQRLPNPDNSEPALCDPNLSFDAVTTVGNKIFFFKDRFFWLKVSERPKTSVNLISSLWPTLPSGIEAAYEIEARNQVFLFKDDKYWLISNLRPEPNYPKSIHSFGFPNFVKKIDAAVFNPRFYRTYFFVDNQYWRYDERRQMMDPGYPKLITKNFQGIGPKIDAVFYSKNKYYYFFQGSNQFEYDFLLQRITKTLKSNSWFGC
TACE, sequence (P78536 215-824): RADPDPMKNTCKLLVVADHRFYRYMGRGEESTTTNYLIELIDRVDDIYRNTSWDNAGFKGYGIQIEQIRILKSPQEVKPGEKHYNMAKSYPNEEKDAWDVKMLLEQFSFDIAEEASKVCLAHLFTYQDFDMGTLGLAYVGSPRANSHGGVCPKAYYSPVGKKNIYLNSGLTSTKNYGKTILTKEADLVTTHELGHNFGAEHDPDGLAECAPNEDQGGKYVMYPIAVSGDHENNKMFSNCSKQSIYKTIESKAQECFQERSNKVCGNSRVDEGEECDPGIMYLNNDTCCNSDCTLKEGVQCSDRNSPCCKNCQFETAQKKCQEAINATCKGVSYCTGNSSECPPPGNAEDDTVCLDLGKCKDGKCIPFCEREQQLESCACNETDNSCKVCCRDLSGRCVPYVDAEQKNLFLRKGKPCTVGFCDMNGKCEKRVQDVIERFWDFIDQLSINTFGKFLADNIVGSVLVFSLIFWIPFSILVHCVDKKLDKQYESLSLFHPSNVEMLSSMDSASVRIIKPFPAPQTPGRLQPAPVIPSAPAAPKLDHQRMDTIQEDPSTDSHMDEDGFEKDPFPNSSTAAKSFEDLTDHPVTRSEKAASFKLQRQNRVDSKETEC
Cathepsin-K, sequence (P43235 115-329, species assumed): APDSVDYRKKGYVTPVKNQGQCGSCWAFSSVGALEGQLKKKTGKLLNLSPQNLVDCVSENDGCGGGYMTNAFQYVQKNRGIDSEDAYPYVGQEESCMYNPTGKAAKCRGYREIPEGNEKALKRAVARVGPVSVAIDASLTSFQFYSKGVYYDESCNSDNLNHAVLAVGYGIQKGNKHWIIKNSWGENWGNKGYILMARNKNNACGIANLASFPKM
Neprilysin, sequence (P08473 whole entry, species assumed): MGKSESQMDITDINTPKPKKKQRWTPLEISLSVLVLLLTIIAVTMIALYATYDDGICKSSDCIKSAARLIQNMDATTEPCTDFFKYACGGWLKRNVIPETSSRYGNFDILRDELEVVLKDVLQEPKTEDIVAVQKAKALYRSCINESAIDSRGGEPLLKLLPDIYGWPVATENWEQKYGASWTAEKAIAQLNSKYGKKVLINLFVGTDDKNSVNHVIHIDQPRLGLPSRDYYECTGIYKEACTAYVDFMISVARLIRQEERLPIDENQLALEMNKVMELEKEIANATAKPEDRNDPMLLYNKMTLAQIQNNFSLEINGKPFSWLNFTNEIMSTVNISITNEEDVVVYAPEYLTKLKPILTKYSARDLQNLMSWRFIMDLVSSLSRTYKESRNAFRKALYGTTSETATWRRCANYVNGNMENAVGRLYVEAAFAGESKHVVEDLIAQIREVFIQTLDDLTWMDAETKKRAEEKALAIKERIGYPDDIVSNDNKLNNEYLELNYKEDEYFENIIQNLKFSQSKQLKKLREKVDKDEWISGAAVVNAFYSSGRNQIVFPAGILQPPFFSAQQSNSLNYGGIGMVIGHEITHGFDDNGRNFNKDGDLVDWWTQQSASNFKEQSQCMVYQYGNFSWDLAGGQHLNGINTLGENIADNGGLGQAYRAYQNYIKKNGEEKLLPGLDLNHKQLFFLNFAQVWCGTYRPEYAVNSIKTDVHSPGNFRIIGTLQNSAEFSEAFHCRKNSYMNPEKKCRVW
ACE, sequence (P12821 30-1306, species assumed): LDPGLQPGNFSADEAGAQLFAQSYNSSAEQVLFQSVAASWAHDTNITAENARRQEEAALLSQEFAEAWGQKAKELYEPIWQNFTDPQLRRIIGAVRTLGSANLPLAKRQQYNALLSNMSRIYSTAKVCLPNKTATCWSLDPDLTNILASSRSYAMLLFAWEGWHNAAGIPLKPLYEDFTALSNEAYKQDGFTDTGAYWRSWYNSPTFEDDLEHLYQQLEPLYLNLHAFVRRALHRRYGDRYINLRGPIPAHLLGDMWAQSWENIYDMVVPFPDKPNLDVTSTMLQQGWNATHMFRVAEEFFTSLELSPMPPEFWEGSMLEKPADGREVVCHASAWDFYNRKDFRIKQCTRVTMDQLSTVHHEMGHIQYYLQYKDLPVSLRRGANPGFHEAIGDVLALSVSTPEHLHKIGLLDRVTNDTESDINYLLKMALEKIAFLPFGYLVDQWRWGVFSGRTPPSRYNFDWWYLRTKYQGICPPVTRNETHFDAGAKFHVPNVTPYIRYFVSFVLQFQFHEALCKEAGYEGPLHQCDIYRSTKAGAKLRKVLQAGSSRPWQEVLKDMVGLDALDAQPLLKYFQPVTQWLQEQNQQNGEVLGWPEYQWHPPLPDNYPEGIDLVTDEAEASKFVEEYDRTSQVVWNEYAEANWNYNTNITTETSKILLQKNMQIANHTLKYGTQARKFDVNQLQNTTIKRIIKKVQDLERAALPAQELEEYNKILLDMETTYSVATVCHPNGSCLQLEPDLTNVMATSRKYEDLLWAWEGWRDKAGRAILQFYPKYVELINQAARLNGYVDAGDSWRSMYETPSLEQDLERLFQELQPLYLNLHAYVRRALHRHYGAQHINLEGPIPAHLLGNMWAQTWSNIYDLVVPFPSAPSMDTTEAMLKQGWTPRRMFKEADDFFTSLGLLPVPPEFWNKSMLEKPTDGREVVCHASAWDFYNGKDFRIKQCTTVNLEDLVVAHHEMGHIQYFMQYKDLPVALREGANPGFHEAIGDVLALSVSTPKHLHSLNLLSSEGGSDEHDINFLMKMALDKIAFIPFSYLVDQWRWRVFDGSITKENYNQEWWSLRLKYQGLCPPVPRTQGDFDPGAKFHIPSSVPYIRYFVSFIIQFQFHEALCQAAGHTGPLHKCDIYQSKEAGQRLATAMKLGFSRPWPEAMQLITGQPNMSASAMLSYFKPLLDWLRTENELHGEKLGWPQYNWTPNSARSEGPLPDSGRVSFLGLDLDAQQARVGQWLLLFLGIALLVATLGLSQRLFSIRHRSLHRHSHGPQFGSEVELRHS
IDE, sequence (P14735 whole entry, species assumed): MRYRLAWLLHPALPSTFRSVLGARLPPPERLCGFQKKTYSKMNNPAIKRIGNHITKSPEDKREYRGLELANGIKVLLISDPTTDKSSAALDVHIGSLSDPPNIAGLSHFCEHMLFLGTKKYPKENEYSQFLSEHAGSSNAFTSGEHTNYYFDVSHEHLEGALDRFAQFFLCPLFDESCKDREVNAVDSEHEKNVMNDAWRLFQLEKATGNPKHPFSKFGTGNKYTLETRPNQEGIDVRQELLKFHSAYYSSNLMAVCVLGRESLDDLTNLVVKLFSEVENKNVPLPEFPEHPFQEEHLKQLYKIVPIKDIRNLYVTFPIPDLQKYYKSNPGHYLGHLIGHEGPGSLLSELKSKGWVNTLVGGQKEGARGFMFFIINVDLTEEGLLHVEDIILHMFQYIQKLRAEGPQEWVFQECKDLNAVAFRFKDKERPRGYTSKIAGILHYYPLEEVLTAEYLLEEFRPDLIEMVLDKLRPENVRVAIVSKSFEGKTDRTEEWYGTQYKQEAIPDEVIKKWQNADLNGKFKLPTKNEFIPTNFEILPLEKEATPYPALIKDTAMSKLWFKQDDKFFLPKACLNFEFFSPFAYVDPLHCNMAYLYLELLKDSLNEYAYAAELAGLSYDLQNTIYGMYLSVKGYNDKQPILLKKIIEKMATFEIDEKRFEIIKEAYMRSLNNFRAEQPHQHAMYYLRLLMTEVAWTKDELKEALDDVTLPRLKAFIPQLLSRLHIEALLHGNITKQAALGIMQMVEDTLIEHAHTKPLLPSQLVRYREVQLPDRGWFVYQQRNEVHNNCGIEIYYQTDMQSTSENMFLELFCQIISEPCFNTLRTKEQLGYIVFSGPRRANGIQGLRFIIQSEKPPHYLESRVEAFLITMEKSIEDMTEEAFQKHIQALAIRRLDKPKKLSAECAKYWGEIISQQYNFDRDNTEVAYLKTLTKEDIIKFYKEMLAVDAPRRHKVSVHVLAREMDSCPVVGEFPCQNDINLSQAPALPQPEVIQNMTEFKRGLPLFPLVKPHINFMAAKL
Caspase-6, sequence (P55212 24-179 limits assumed, species assumed): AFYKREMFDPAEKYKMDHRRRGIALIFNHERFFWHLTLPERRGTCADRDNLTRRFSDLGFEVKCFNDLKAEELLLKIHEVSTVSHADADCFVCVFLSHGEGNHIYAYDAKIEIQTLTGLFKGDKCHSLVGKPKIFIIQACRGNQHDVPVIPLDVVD
Caspase-6, sequence (P55212 194-293 limits assumed, species assumed): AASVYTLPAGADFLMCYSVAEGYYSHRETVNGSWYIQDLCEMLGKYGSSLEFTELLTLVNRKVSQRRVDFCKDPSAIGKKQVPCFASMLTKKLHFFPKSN
Caspase-1, sequence (P29466 120-297 limits assumed, species assumed): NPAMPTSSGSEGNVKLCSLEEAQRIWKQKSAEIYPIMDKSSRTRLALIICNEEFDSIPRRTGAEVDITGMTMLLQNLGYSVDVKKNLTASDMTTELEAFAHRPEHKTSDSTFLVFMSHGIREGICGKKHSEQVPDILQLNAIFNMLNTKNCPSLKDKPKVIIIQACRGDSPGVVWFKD
Caspase-1, sequence (P29466 317-404 limits assumed, species assumed): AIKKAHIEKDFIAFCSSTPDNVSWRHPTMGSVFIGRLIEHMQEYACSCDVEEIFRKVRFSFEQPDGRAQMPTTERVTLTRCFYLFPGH
MMP-7, sequence (P09237 95-267, species assumed): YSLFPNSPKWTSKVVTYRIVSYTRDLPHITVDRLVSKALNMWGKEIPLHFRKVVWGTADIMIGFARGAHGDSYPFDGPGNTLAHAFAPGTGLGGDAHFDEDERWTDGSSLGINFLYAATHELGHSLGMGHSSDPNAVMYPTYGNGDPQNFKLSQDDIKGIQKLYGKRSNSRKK

Structure (SMILES): CNC(=O)[C@H](NC(=O)c1ccc(-c2ccc(CSc3nc4c(c(=O)[nH]3)CCC4)cc2)o1)C(C)C [(R)-17a]
loss of inhibition activity vs. MMP-13 compared to the (S)-enantiomer (MMP-13 [1]): ca. 12 fold
IC50 (MMP-13 [1]): 72 nM

Structure (SMILES): CC(C)[C@@H](NS(=O)(=O)c1ccc(-c2ccc(CSc3nc4c(c(=O)[nH]3)CCC4)cc2)cc1)C(=O)O [Compound (R)-10a]
IC50 (MMP-13 [1]): 2.4 nM
Ki (MMP-13 [2]): 1.6 nM

Structure (SMILES): CC(C)[C@H](NS(=O)(=O)c1ccc(-c2ccc(CSc3nc4c(c(=O)[nH]3)CCC4)cc2)cc1)C(=O)O [(S)-10a]
IC50 (MMP-13 [1]): 2.2 nM
Ki (MMP-13 [2]): 2.3 nM

Structure (SMILES): CNC(=O)[C@@H](NC(=O)c1ccc(-c2ccc(CSc3nc4c(c(=O)[nH]3)CCC4)cc2)o1)C(C)C [(S)-17a]
improvement of MMP-13 inhibition potency compared to 5 (MMP-13 [1]): ~1,000 fold
IC50 (MMP-13 [1]): 5.9 nM
inhibition of MMP-8 in single dose assay (MMP-8): moderately active inhibitor
inhibition of MMP-2 in single dose assay (MMP-2): moderately active inhibitor

Structure (SMILES): CNC(=O)[C@@H](NC(=O)c1ccc(-c2ccc(CSc3nc4c(c(=O)[nH]3)CCC4)c(F)c2)o1)C(C)C [Compound (S)-17b]
inhibition (Caspase-6; read-out: % Inhibition Caspase-6): 0%
inhibition (ACE2; read-out: % Inhibition ACE2): 0%
inhibition (Cathepsin-L; read-out: % Inhibition Cathepsin-L): 7%
inhibition (Caspase-1; read-out: % Inhibition Caspase-1): 0%
inhibition (IDE; read-out: % Inhibition IDE): 0%
inhibition (Caspase-5; read-out: % Inhibition Caspase-5): 0%
inhibition (Cathepsin-K; read-out: % Inhibition Cathepsin-K): 2%
inhibition (ADAM10; read-out: % Inhibition ADAM10): 0%
inhibition (Furin; read-out: % Inhibition Furin): 0%
inhibition (Caspase-3; read-out: % Inhibition Caspase-3): 0%
inhibition (Cathepsin-D; read-out: % Inhibition Cathepsin-D): 0%
inhibition (ACE; read-out: % Inhibition ACE): 0%
inhibition (Factor-XA; read-out: % Inhibition Factor-XA): 0%
inhibition (BACE-1; read-out: % Inhibition BACE-1): 0%
inhibition (Cathepsin-S; read-out: % Inhibition Cathepsin-S): 2%
inhibition (Neprilysin; read-out: % Inhibition Neprilysin): -6%
inhibition (MMP-7; read-out: % Inhibition MMP-7): 4%
inhibition (Caspase-7; read-out: % Inhibition Caspase-7): 8%
inhibition (TACE; read-out: % Inhibition TACE): -3%
inhibition (Thrombin): -8%
inhibition (uPA; read-out: % Inhibition uPA): 1%
inhibition (Caspase-2; read-out: % Inhibition Caspase-2): 0%

Continued, values first:

IC50 (MMP-13 [1]): 1.6 nM
Ki (MMP-13 [2]): 1.8 nM
Structure (SMILES): O=C(O)CNS(=O)(=O)c1ccc(-c2ccc(CSc3nc4c(c(=O)[nH]3)CCC4)cc2)cc1 [Compound 10b]

inhibition at 1 µM (Caspase-6; [5]): 0%
less active as inhibitor of MMP-12 than as MMP-13 inhibitor (MMP-12 [3]): 140 fold
IC50 (MMP-12 [3]; fTHP substrates (footnote), 10-point dilution): 470 nM and 467 nM
inhibition at 1 µM (ACE2; [5]): 1%
inhibition at 1 µM (Cathepsin-L; [5]): 9%
inhibition at 1 µM (Caspase-1; [5]): 1%
inhibition at 1 µM (IDE; [5]): 0%
inhibition at 1 µM (Caspase-5; [5]): 0%
inhibition at 1 µM (Cathepsin-K; [5]): 0%
inhibition at 1 µM (ADAM10; [5]): 0%
inhibition at 1 µM (Furin; [5]): 0%
inhibition at 1 µM (Caspase-3; [5]): 0%
inhibition at 1 µM (Cathepsin-D; [5]): 3%
inhibition at 1000 µM (MMP-12 [4]): 40%
inhibition at 1 µM (ACE; [5]): 7%
inhibition at 1 µM (Factor-XA; [5]): 3%
inhibition (MMP-3): 13%
inhibition at 1 µM (BACE-1; [5]): 1%
inhibition at 1 µM (Cathepsin-S; [5]): 12%
inhibition at 1 µM (Neprilysin; [5]): 3%
inhibition at 1 µM (MMP-7; [5]): 7%
inhibition at 1 µM (Caspase-7; [5]): 1%
inhibition at 1 µM (TACE; [5]): 4%
inhibition (Thrombin; single stranded peptide substrate, inhibitor (text 1 μM), duplicates): -3%
inhibition at 1 µM (uPA; [5]): 3%
inhibition at 1 µM (Caspase-2; [5]): 0%
Structure (SMILES): NCCNS(=O)(=O)c1ccc(-c2ccc(CSc3nc4c(c(=O)[nH]3)CCC4)cc2)cc1 [Compound 10d]
